Results on eleven compounds are retold here after ChEMBL document CHEMBL1139649, “Hetaryl imidazoles: a novel dual inhibitors of VEGF receptors I and II” (Bioorg Med Chem Lett, 2006).

pIC50: −log10 of the molar value.

For experiment [1], the target named is Vascular endothelial growth factor receptor 1 (Homo sapiens, UniProt P17948). The experiment is described as follows: Inhibition of VEGFR1 by enzymatic assay.
In experiment [2] the target is Receptor tyrosine-protein kinase erbB-2 (Homo sapiens) (UniProt P04626). The experiment can be described thus: […] against ErbB2 at 10 uM by HTRF method.
Experiment [3] deals with RAC-alpha serine/threonine-protein kinase (Homo sapiens) (UniProt P31749). The experiment is described as follows: […] against PKB/Akt at 10 uM by HTRF method.
Sequence of RAC-alpha serine/threonine-protein kinase (Homo sapiens) (P31749 whole entry): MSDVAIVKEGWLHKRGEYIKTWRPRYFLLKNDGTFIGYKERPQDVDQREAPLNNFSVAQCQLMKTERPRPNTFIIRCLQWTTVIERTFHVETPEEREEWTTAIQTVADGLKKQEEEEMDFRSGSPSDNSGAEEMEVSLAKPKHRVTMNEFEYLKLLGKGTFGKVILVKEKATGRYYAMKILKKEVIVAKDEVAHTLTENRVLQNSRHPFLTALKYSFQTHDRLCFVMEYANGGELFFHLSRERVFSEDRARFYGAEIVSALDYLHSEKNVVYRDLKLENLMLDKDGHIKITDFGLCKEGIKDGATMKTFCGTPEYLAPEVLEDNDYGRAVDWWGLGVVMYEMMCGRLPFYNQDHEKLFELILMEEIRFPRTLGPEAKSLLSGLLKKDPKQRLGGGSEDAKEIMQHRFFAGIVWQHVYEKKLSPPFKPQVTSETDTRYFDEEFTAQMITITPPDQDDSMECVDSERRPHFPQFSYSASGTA
The target in experiment [4] is Cyclin-dependent kinase 5 (Homo sapiens) (UniProt Q00535). The experiment is described as follows: […] against Cdk5 at 10 uM by HTRF method.
Sequence of Cyclin-dependent kinase 5 (Homo sapiens) (Q00535 whole entry, looked up): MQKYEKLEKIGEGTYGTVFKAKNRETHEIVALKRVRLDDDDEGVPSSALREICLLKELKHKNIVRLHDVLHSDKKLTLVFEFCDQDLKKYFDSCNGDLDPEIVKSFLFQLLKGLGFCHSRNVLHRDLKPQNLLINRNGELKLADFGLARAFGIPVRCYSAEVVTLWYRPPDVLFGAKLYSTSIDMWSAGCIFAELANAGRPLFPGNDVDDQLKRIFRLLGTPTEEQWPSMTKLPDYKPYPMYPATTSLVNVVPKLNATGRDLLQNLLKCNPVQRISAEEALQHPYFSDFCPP
For experiment [5], the target named is Fibroblast growth factor receptor 1 (Homo sapiens) (UniProt P11362). The experiment can be described thus: Percent inhibition against FGFR1 at 10 uM by HTRF method. Further details: scale not given: the % may be the effect or the level left. (TR-FRET usually uses a lanthanide donor and a delayed reading to cut background.)
The target of experiment [6] is Glycogen synthase kinase-3 beta (Homo sapiens) (UniProt P49841). The experiment can be described thus: Inhibition against GSK3-beta at 10 uM by HTRF method. Further details: scale not given: the % may be the effect or the level left.
Sequence of Glycogen synthase kinase-3 beta (Homo sapiens) (P49841 whole entry, looked up): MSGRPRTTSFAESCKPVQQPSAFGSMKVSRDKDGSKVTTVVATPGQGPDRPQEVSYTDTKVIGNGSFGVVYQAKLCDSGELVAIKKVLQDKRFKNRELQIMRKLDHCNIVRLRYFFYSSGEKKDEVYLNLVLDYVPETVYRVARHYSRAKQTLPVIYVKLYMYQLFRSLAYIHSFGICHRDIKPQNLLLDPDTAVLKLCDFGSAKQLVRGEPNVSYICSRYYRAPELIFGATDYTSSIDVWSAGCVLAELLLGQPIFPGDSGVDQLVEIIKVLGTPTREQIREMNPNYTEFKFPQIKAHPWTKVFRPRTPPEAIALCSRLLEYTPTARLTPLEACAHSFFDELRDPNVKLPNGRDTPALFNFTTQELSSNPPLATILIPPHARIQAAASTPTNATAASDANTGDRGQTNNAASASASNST
Experiment [7] concerns the target Cyclin-dependent kinase 2 (Homo sapiens) (UniProt P24941). The experiment can be described thus: […] against Cdk2 at 10 uM by HTRF method.
Experiment [8] deals with Receptor-type tyrosine-protein kinase FLT3 (Homo sapiens) (UniProt P36888). The experiment is described as follows: Inhibition of Flt3 at 10 uM by HTRF method. Further details: scale not given: the % may be the effect or the level left.
Sequence of Receptor-type tyrosine-protein kinase FLT3 (Homo sapiens) (P36888 whole entry, the tested form may be a part): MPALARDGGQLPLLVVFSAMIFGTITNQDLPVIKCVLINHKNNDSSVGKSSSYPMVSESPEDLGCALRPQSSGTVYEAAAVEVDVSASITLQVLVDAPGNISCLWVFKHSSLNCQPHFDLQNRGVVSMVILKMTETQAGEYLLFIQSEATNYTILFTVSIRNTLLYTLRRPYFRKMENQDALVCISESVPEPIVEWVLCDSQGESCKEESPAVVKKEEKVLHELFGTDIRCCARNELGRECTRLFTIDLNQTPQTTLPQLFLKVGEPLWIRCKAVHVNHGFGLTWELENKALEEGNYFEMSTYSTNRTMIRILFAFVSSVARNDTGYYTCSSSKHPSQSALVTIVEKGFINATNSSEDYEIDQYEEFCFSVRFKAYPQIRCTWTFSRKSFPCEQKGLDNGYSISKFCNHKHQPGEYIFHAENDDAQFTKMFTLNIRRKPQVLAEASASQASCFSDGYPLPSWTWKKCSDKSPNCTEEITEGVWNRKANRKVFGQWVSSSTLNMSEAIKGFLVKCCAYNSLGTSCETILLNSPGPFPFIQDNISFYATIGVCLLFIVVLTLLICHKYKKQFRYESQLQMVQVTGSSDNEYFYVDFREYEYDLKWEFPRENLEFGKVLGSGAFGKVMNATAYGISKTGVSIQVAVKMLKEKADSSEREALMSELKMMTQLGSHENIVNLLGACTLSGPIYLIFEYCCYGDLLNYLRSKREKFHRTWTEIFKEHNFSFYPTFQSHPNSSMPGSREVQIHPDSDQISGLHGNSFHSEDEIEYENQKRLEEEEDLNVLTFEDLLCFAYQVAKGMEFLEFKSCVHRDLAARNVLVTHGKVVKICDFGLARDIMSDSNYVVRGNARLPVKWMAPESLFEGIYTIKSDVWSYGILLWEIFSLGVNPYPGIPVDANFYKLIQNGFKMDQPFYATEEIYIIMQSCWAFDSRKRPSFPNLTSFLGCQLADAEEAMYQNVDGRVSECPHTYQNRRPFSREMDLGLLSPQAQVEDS
Experiment [9] concerns the target Bcr/Abl fusion protein (Homo sapiens) (UniProt P00519+P11274). The experiment is described as follows: Inhibition of bcr-Abl at 10 uM by HTRF method. Further details: scale not given: the % may be the effect or the level left. The format is protein assay.
Experiment [10] deals with T1, Ephrin type-B receptor 4 (Homo sapiens) (UniProt P54760).
T1 sequence (whole entry): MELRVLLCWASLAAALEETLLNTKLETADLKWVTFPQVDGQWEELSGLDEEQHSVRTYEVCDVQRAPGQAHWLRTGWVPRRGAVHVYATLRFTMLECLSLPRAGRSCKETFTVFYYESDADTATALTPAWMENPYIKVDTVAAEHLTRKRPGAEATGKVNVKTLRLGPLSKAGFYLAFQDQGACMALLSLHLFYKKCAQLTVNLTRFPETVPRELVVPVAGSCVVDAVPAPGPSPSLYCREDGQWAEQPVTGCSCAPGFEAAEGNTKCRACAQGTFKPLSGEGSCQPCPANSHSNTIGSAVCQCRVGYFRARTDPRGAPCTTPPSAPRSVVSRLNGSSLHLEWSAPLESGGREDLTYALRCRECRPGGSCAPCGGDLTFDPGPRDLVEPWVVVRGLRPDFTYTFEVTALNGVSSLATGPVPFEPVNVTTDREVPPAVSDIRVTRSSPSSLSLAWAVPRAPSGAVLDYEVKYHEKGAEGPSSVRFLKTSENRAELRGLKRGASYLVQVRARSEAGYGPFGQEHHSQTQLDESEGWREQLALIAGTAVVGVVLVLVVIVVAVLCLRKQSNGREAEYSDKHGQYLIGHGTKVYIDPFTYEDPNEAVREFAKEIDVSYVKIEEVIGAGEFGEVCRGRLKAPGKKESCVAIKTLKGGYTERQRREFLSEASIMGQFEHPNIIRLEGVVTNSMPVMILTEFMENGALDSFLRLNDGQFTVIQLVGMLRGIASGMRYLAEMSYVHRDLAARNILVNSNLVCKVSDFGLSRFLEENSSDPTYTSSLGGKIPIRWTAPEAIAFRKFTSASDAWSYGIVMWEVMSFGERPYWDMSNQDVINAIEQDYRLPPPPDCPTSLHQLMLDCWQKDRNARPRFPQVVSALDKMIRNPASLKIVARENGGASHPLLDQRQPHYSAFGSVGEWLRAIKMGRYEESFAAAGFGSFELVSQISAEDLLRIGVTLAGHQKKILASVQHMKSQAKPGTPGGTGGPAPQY
The experiment can be described thus: Percent inhibition against EphB4 at 10 uM by HTRF method. Further details: scale not given: the % may be the effect or the level left.

The target of experiment [11] is cAMP-dependent protein kinase (PKA) (Homo sapiens) (UniProt P22694+P17612+P22612). The experiment is described as follows: Inhibition against PKA at 10 uM by HTRF method. The experiment is classed as protein assay. Further details: scale not given: the % may be the effect or the level left.
Experiment [12] concerns the target Insulin-like growth factor 1 receptor (Homo sapiens) (UniProt P08069). The experiment is described as follows: […] against IGF1R at 10 uM by HTRF method.
Experiment [13] concerns the target Epidermal growth factor receptor (Homo sapiens) (UniProt P00533). The experiment is described as follows: […] against ErbB1 at 10 uM by HTRF method.
Experiment [14] addresses T2, Vascular endothelial growth factor receptor 2 (Homo sapiens, UniProt P35968). The experiment is described as follows: Inhibition of VEGFR2 in 293 adenovirus transfected kidney cells by cell-based ELISA assay. (In general: In an ELISA, binding on a coated surface is turned into a signal by an enzyme label.)
Experiment [15] concerns the target Hepatocyte growth factor receptor (Homo sapiens) (UniProt P08581). The experiment is described as follows: Percent inhibition against c-Met at 10 uM by HTRF method. Further details: scale not given: the % may be the effect or the level left.
The target in experiment [16] is T2, Vascular endothelial growth factor receptor 2. The experiment is described as follows: Inhibition of VEGFR2 by enzymatic assay.

Sequence of Epidermal growth factor receptor (Homo sapiens) (P00533 whole entry): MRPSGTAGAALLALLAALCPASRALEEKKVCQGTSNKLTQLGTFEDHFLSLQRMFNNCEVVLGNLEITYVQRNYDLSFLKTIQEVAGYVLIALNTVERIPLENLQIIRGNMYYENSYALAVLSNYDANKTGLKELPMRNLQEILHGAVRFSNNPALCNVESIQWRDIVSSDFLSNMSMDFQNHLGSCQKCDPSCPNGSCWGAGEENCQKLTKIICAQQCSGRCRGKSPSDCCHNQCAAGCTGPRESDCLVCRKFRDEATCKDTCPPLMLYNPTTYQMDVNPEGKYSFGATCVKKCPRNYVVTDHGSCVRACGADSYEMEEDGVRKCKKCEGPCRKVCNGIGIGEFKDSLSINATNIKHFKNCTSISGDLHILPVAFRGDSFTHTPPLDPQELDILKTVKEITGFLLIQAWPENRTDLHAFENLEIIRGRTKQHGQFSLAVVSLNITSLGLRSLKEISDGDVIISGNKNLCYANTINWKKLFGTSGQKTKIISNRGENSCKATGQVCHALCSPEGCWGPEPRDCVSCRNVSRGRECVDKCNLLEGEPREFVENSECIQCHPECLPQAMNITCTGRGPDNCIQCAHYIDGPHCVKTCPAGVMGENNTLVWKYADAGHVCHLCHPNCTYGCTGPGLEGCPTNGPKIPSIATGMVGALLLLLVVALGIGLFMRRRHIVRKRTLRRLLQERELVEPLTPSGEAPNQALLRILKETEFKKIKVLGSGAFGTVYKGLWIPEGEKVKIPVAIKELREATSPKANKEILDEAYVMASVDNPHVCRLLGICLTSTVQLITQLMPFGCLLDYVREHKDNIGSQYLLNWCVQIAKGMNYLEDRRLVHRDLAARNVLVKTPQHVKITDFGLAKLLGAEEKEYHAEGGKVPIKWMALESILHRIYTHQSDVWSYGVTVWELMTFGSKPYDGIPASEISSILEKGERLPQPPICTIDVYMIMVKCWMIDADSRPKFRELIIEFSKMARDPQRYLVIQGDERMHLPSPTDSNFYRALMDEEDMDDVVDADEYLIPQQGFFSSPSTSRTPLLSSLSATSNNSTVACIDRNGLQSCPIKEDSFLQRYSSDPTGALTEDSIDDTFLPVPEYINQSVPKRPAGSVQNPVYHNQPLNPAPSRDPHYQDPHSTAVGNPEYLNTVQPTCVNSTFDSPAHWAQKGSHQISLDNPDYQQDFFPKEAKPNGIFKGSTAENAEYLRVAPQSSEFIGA
T2 sequence (P35968 whole entry): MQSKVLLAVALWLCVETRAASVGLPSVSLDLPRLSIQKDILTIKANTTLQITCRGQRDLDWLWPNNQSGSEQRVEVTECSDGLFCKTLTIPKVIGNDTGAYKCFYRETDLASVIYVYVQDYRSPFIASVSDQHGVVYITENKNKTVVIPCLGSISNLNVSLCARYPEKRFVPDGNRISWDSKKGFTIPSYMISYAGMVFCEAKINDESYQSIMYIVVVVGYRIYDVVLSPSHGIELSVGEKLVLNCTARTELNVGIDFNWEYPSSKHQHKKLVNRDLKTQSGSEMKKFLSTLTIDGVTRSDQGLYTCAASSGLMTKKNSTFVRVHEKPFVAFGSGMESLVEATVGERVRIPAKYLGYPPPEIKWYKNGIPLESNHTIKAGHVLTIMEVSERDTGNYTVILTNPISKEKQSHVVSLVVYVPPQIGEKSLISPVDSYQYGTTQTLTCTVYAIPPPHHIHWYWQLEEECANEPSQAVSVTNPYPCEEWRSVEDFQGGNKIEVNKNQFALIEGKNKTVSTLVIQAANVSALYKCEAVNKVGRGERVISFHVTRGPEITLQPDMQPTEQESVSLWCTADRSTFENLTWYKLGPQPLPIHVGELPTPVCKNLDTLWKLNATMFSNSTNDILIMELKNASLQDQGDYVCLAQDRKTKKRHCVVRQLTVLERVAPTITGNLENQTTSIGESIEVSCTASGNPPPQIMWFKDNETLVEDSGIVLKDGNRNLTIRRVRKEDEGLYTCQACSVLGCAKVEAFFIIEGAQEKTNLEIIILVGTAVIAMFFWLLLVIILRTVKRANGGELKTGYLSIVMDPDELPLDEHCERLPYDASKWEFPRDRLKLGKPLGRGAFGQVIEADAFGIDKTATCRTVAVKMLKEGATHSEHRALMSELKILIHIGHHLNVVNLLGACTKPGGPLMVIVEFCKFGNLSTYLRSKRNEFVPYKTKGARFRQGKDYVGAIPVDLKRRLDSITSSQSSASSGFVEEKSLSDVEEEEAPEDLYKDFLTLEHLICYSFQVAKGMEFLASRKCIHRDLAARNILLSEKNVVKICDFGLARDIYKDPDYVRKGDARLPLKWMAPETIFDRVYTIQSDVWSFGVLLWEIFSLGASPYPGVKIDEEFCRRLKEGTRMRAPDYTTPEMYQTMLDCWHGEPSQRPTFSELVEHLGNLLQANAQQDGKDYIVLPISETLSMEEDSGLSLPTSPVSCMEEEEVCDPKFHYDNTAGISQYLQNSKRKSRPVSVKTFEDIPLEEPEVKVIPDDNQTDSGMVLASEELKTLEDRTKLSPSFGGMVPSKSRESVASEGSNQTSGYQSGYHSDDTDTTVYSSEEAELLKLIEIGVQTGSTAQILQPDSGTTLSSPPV

As to `Cn1cnc(NCc2ccccn2)c1-c1nnc(Nc2ccc(Cl)cc2)o1`, the negative-log IC50 (pIC50) in experiment [1], in [14] and in [16] was less than 5.00 throughout. Besides, the Activity in [2], in [3], in experiment [4], in experiment [5], in experiment [6] and in experiment [8] was less than 30% throughout. Further, the Activity in experiment [9], in [10], in experiment [11], in [12] and in experiment [15] was less than 30% throughout. Also, the Percent inhibition in experiment [7] and in experiment [13] was less than 30% in each case.

For `Cn1cnc(NCc2ccncc2)c1-c1nnc(Nc2ccc(Cl)c(Cl)c2)o1`, the results for the pIC50 in experiment [1], in [14] and in [16] were 6.31, 6.59 and 6.74, respectively. The Activity in experiment [2], in experiment [3], in [4], in experiment [5], in experiment [6] and in [8] was less than 30% in each case. In addition, the Activity in experiment [9], in experiment [10], in experiment [11], in experiment [12] and in [15] was less than 30% each time. Also, the Percent inhibition in experiment [7] and in experiment [13] was less than 30% throughout.

In the case of `Cn1cnc(NCc2ccncc2)c1-c1nnc(Nc2ccc(Oc3ccccc3)cc2)o1`, the pIC50 in experiment [1] and in [16] was less than 5.00 in each case. The Activity in experiment [2], in [3], in [4], in [5], in experiment [6] and in [8] was less than 30% each time. Further, the Activity in experiment [9], in experiment [10], in experiment [11], in experiment [12] and in experiment [15] was less than 30% in each case. Further, the Percent inhibition in [7] and in experiment [13] was less than 30% in each case.

On to `Cn1cnc(NCc2ccncc2)c1-c1nnc(Nc2ccc(Cl)cc2)o1`, for which the values for the negative-log IC50 (pIC50) in [1], in experiment [14] and in [16] were 6.47, 6.24 and 6.60, respectively. The Activity in experiment [2], in experiment [3], in experiment [4], in [5], in experiment [6] and in experiment [8] was less than 30% throughout. The Activity in experiment [9], in [10], in [11], in experiment [12] and in [15] was less than 30% throughout. Besides, the Percent inhibition in experiment [7] and in experiment [13] was less than 30% each time.

Turning to `Cn1cnc(NCc2ccncc2)c1-c1nnc(Nc2ccc(Br)cc2)o1`, the results for the pIC50 in [1] and in [16] were 5.83 and 6.14, respectively. For the same compound, the Activity in [2], in experiment [3], in [4], in [5], in [6] and in experiment [8] was less than 30% each time. For the same compound, the Activity in [9], in [10], in experiment [11], in [12] and in experiment [15] was less than 30% in each case. The Percent inhibition in experiment [7] and in experiment [13] was less than 30% each time.

With `Cn1cnc(NCc2ccncc2)c1-c1nnc(Nc2ccc(Cc3ccccc3)cc2)o1`, the negative logarithm of the IC50 (pIC50) in experiment [1] and in [16] was less than 5.00 each time. Besides, the Activity in experiment [2], in [3], in [4], in experiment [5], in experiment [6] and in experiment [8] was less than 30% each time. Moreover, the Activity in [9], in [10], in experiment [11], in experiment [12] and in experiment [15] was less than 30% in each case. In addition, the Percent inhibition in experiment [7] and in [13] was less than 30% each time.

Regarding `Cn1cnc(NCc2cccnc2)c1-c1nnc(Nc2ccc(Cl)cc2)o1`, the pIC50 in [1], in experiment [14] and in experiment [16] was less than 5.00 in each case. Besides, the Activity in [2], in experiment [3], in experiment [4], in experiment [5], in experiment [6] and in [8] was less than 30% in each case. Also, the Activity in experiment [9], in experiment [10], in experiment [11], in experiment [12] and in [15] was less than 30% throughout. In addition, the Percent inhibition in experiment [7] and in experiment [13] was less than 30% throughout.

On to `Cn1cnc(NCc2ccncc2)c1-c1nnc(Nc2ccc(-c3ccccc3)cc2)o1`, for which the results for the pIC50 in experiment [1] and in experiment [16] were less than 5.00 and 5.49, respectively. The Activity in experiment [2], in experiment [3], in [4], in experiment [5], in [6] and in experiment [8] was less than 30% each time. Moreover, the Activity in [9], in experiment [10], in experiment [11], in experiment [12] and in experiment [15] was less than 30% each time. The Percent inhibition in experiment [7] and in [13] was less than 30% each time.

With `Cc1cccc(Nc2nnc(-c3c(NCc4ccncc4)ncn3C)o2)c1`, the pIC50 in experiment [1] is 5.90; in experiment [16], 6.15. The Activity in [2], in [3], in [4], in experiment [5], in experiment [6] and in [8] was less than 30% throughout. Besides, the Activity in experiment [9], in [10], in experiment [11], in [12] and in experiment [15] was less than 30% each time. In addition, the Percent inhibition in experiment [7] and in experiment [13] was less than 30% throughout.

Regarding `COc1ccccc1Nc1nnc(-c2c(NCc3ccncc3)ncn2C)o1`, the Activity in experiment [2], in [3], in experiment [4], in experiment [5], in [6] and in experiment [8] was less than 30% throughout. Moreover, the Activity in [9], in experiment [10], in experiment [11], in experiment [12] and in experiment [15] was less than 30% throughout. Further, the Percent inhibition in experiment [7] and in experiment [13] was less than 30% throughout.

In the case of `Cc1ccccc1Nc1nnc(-c2c(NCc3ccncc3)ncn2C)o1`, the pIC50 in experiment [1] and in experiment [16] was less than 5.00 in each case. In addition, the Activity in [2], in experiment [3], in experiment [4], in experiment [5], in experiment [6] and in [8] was less than 30% each time. For the same compound, the Activity in [9], in experiment [10], in experiment [11], in experiment [12] and in experiment [15] was less than 30% in each case. In addition, the Percent inhibition in experiment [7] and in experiment [13] was less than 30% in each case.

By pIC50 is commonly meant the negative decadic logarithm of the IC50, by convention in mol/L.
